Results reported in patent US11299496B2, “Ligands for alpha-7 nicotinic acetylcholine receptors and methods of treating neurological and inflammatory conditions” (Northeastern University, priority 2014, dated 2022).

Tests used:
alpha-7 nAChRs = alpha-7 nAChRs (Homo sapiens, UniProt P36544); conditions: cited from earlier work
human alpha-7 nAChR [1] = target: T1, human alpha-7 nAChR (Homo sapiens, UniProt P36544); experiment: Two-electrode voltage clamp of alpha-7 nAChR expressed in Xenopus oocytes (net charge); assay type: cell-based; conditions: area under the curve of current vs. time
T1 construct: expressed in transfected cells; host or cells: Xenopus laevis oocytes (cRNA injection)
T1 sequence (P36544 23-502): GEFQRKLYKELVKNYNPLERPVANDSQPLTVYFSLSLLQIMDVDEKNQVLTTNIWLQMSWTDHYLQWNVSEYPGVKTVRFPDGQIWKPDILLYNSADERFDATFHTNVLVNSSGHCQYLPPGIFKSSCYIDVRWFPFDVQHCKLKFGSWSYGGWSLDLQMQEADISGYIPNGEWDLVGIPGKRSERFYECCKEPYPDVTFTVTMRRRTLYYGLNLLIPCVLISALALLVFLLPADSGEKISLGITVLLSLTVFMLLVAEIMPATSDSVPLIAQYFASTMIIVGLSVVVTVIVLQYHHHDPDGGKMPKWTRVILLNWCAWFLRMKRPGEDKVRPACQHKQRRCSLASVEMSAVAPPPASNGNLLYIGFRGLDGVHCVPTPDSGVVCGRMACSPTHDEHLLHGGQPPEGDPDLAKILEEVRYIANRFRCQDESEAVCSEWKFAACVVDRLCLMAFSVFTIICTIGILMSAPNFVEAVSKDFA
Outline: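 Human α7 nAChR co-expressed with RIC-3 in Xenopus oocytes; two-electrode clamp at −60 mV, 12 s applications in Ringer's pH 7.3. Net charge integrated over 120 s from application, normalized to prior ACh controls; measured for compound alone and with choline or ACh; n≥4 oocytes.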

Solubility comparison = assay type: physicochemical
human alpha-7 nAChR [2] = target: T1, human alpha-7 nAChR; experiment: Electrophysiological evaluation of PAMs and ago-PAMs in Xenopus oocytes (direct activation, direct and primed potentiation); assay type: cell-based
Description: Electrophysiological evaluation in Xenopus oocytes was used to determine the potency and efficacy with which PAMs and ago-PAMs of the invention produce self-induced agonism and positive allosteric modulation of the orthosteric, agonist-induced activation of the alpha-7 nAChR. The ability of these compounds to increase the maximal channel influx and to enhance the activity of the receptor on its own as well as in presence of choline is denoted by Imax and EC50 respectively. The details of cDNA clones and RNA for injection was as published. Thakur et. al. 2013, J. Med. Chem. 2013 Nov. 14; 56(21):8943-7. doi: 10.1021/jm401267t). For experiments involving PAM and ago-PAM analogs, where standard levels of expression result in ion currents too large to be recorded in voltage clamp, experiments were typically conducted 1-3 days after RNA injection.
Two-electrode voltage clamp was conducted using OpusXpress 6000A (Molecular Devices, Union City, Calif.). Both the voltage and current electrodes were filled with 3 M KCl. Oocytes were voltage-clamped at −60 mV except when determining the effect of voltage on channel activation. The oocytes were bath-perfused with Ringer's solution (115 mM NaCl, 2.5 mM KCl, 1.8 mM CaCl2, 10 mM HEPES, and 1 μM atropine, pH 7.2) with a flow rate of 2 mL/min. To evaluate the effects of experimental compounds on ACh-evoked responses of alpha-7 nAChRs expressed in oocytes, the initial control responses were measured with two applications of ACh alone, before applications of experimental drugs alone or co-applications with ACh. The agonist solutions were applied from a 96-well plate via disposable tips, and the drugs were either co-applied with ACh by the OpusXpress pipette delivery system or bath-applied using the OpusXpress system to switch the running buffer. Drug applications were for 12 s followed by a 181 s washout period and usually alternated between controls and test solutions. After experimental drug applications, follow-up control applications of ACh were made to determine primed potentiation, desensitization or rundown of the receptors. Data were collected at 50 Hz, filtered at 20 Hz, analyzed by Clampfit 9.2 (Molecular Devices) and Excel (Microsoft, Redmond Wash.), and normalized to the averaged current of the two initial control responses. Data were expressed as mean±SEM from at least four oocytes for each experiment. For the concentration-response relationships, responses were normalized to the net charge of the most adjacent prior control.
A detailed comparative activity profile of select ago-PAMs/PAMs based on the structure of 4BP-TQS was obtained. […] They also functioned as direct PAMs, producing responses when co-applied with ACh. However, the primed potentiation of response to ACh alone was less after direct potentiation than after direct activation, due to residual induction of PAM-insensitive desensitization.

CCI mice = experiment: Chronic constriction injury (CCI) model, mechanical allodynia (von Frey); assay type: in vivo, mouse
Procedure: Mice were anesthetized with pentobarbital (45 mg/kg, i.p.). An incision was made just below the hipbone, parallel to the sciatic nerve. The right common sciatic nerve was exposed at the level proximal to the sciatic trifurcation, and a nerve segment 3-5 mm long was separated from surrounding connective tissue. Two loose ligatures with 6-0 silk suture were made around the nerve with a 1.0-1.5 mm interval between them. Muscles were closed with suture thread and the wound with wound clips. […] Any suture that remained after two weeks was removed from the healed surgical wound. Mechanical allodynia (von Frey test) was measured before and after drug injections.
The antiallodynic effects of test compounds were assessed in three experiments consisting of CCI mice and sham control mice. […] The anti-allodynic effects of alpha-7 nAChRs PAMs and ago-PAMs were tested (four doses and vehicle control, N=10 mice/group, administered i.p.) in the CCI model. Mice were assessed for mechanical allodynia 2 weeks after the CCI surgery. All these studies will be conducted in blinded manner. CCI and sham control mice received two conditioning sessions per day (vehicle in the morning and drug in the afternoon) over the course of 3 days, and were tested for a place preference on day 7 without any injections.
Pain behavioral data are presented as mean±S.E.M. (see FIGS. 5A and 5B). Statistical analysis was performed using the t-test or two-way analysis of variance test, followed by the post-hoc Bonferroni's test. All differences were considered significant at p<0.05, and significant differences are shown with asterisks in FIGS. 5A and 5B. ED50 values with 95% confidence limits (CL) were calculated by unweighted least-squares linear regression.

alpha-7 nAChRs, sequence (P36544 23-502): as above

NS(=O)(=O)c1ccc2c(c1)C1C=CCC1C(c1ccc(Br)cc1)N2 (racemic) [Compound 4BP-TQS, 4-(4-bromophenyl)-3a,4,5,9b-tetrahydro-3H-cyclopenta[c]quinoline-8-sulfonamide]
maximal response larger than ACh (alpha-7 nAChRs; agonist efficacy relative to ACh): 45 fold | EC50 lower than ACh (alpha-7 nAChRs; agonist potency relative to ACh): 8 fold

NS(=O)(=O)c1ccc2c(c1)[C@H]1C=CC[C@H]1[C@@H](c1ccc(Br)s1)N2 (stereo in doubt) [Compound 36, 4-(5-bromothiophen-2-yl)-3a,4,5,9b-tetrahydro-3H-cyclopenta[c]quinoline-8-sulfonamide]
Charge Alone (human alpha-7 nAChR [1]; compound alone acting as an allosteric agonist): 48 | Charge +C (human alpha-7 nAChR [1]; compound together with choline or ACh, includes PAM and ago-PAM activity): 1145 | solubility compared to GAT107 (Solubility comparison): significantly better solubility compared to GAT107 | direct activation when applied alone (human alpha-7 nAChR [2]; FIGS. 2A-2F): directly activated human alpha-7 nAChR | primed potentiation of subsequent responses to ACh applied alone (human alpha-7 nAChR [2]; FIGS. 2A-2F): large primed potentiation | peak efficacy in the presence of ACh (human alpha-7 nAChR [2]; GAT154 vs GAT155): almost equal peak efficacy | reversal of CCI effect (CCI mice; 1 mg/kg): completely reversed the effect | threshold for pain in the CCI model (CCI mice; dose of 1 mg/kg, FIG. 5B): effective in increasing the threshold for pain | effectiveness relative to GAT155 in the CCI model (CCI mice; same dose of 1 mg/kg): twice as effective at every time point | effect on sham mice (CCI mice; sham control mice): without showing any significant effect on the sham mice
